Results: patent US20210069295A1, “GALECTINS CONTROL MTOR IN RESPONSE TO ENDOMEMBRANE DAMAGE AND PROVIDE A MECHANISM AND TARGET FOR THE TREATMENT OF AUTOPHAGY-RELATED DISEASES” (STC. UNM, priority 2017, published 2021)
Peptide text beside a SMILES is read from it.

Test system: Ragulator-Rag complex
Experiment: Co-immunoprecipitation of Ragulator, Rag GTPases and mTOR/Raptor in HEK293T cells
Assay type: cell-based
Conditions: 100 μM GPN 1 h
Protocol: (A) Analysis of mTOR activity in TSC2-deleted (TSC2−/−) and wildtype (TSC2WT) HeLa cells treated with 100 μM GPN in full medium (Full) or starved in EBSS for 1 h. mTOR activity was monitored by immunoblotting analysis of S6K1 (T389) phosphorylation (phosphorylated S6K (p-T389) relative to total S6K). Ctrl, control (untreated cells). (B) Co-immunoprecipitation analysis of changes in interactions between Ragulator and Rag GTPases following treatment with GPN. HEK293T cells stably expressing FLAG-metap2 (control) or FLAG-p14 were treated with 100 μM GPN in full medium for 1 h. Cell lysates were immunoprecipitated (IP) with anti-FLAG antibody and immunoblotted for endogenous RagA or RagC. […] (D) Analysis of mTOR activity in HEK293T cells or HEK293T cells stably expressing constitutively active RagB GTPase (RagBQ99L) treated with 100 μM GPN in full medium or starved in EBSS for 1 h. mTOR activity was monitored as in A. Data, means±SEM, (n=3), † not significant, **p<0.01, ANOVA. […] (F) Quantification by HC of overlaps between mTOR and LAMP2 (representative images shown in FIG. S2C) in HEK293T cells and HEK293T cells stably expressing constitutively active RagB GTPase (RagBQ99L) treated with 100 μM GPN in full medium for 1 h. Data, means±SEM, n≥3 independent experiments (500 primary objects counted per well; ≥5 wells/sample per each experiment); † p≥0.05, *p<0.05, ANOVA. […]

Structure (SMILES): NCC(=O)N[C@@H](Cc1ccccc1)C(=O)Nc1ccc2ccccc2c1 [GPN, glycyl-L-phenylalanine 2-naphththylamide] (HELM PEPTIDE1{G.F.[c1ccc2cc(N[*:1])ccc2c1]}$$$$V2.0)
- interactions between Ragulator (p14 and p18) and RagA/RagC in co-IPs: enhanced interactions
- mTOR and Raptor levels in complexes with RagB or RagA: diminished mTOR and Raptor levels
